Test systems include A498; A549; COLO 205; HCC 2998; HCT-116; HOP-62; K562; MDA-N; NCI-H226; NCI-H23; NCI/ADR-RES; OVCAR-4; OVCAR-8; SF-268; SF-539; SK-MEL-5; SNB-75; SW-620; T47D; UACC-62.
Common to all, as to assay: NCI tumour cell line growth inhibition, 48 h

SMILES strings stand for the structures.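 Growth conditions: 96-well plates. Treatment: test compound, 48 hours, 5 concentrations. Analysis: linear interpolation between bracketing concentrations; unreached endpoints set to highest concentration. At the GI50, growth is halved.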 Activity calls are given as the source filed them. No stated cut-off is given here; in the data, active = GI50 up to about 1.1 µM and inactive = higher.

Ten compounds from ChEMBL document CHEMBL1201862, “PubChem BioAssay data set” (2004) can be followed below.

For `COC(=O)C1Cc2cccc(C)c2C1` (stereo not given), the GI50 in the test on A498, in the test with A549, in the test on COLO 205, with HCC 2998, in the test on HCT-116 and in the test with HOP-62 was > 100 µM (inactive) each time. Moreover, the GI50 with K562 is 48.4 µM (inactive); with MDA-N, > 100 µM (inactive); in the test with NCI-H226, > 100 µM (inactive); in the test on NCI-H23, > 100 µM (inactive); with NCI/ADR-RES it was 62.2 µM (inactive); in the test with OVCAR-4, > 100 µM (inactive). Further, the GI50 with OVCAR-8, in the test with SF-268, in the test with SF-539, in the test with SK-MEL-5, in the test on SNB-75 and in the test with SW-620 was > 100 µM (inactive) each time. The GI50 with T47D and in the test on UACC-62 was > 100 µM (inactive) in each case.
For `COc1cccc(OC)c1/C=C1\OC(=O)c2cccc(OC)c21`, the GI50 is 4.14 µM (inactive) with A498; 7.36 µM (inactive) in the test with A549; 2.88 µM (inactive) in the test with COLO 205; 3.16 µM (inactive) in the test with HCC 2998; 3.87 µM (inactive) with HCT-116; 5.62 µM (inactive) in the test with HOP-62. Further, the GI50 in the test with K562 was 0.527 µM (active); in the test with MDA-N it was 0.596 µM (active); in the test with NCI-H226, 3.84 µM (inactive); with NCI-H23, 19.4 µM (inactive); in the test on NCI/ADR-RES, 3.51 µM (inactive); in the test with OVCAR-4 it was > 30.1 µM (inactive). In addition, the GI50 was 4.59 µM (inactive) in the test with OVCAR-8; 6.4 µM (inactive) in the test on SF-268; 2.3 µM (inactive) in the test on SF-539; 3.13 µM (inactive) in the test with SK-MEL-5; 2.96 µM (inactive) in the test with SNB-75; 3.37 µM (inactive) in the test with SW-620. The values for the GI50 with T47D and in the test on UACC-62 were 5.33 µM (inactive) and 2.62 µM (inactive), respectively.
Consider `CN(C)CCCCCNc1c2ccccc2nc2cccc([N+](=O)[O-])c12`, for which the GI50 was 0.00258 µM (active) in the test on A498; 0.000685 µM (active) in the test on A549; 0.000524 µM (active) with COLO 205; 0.00331 µM (active) in the test on HCC 2998; 0.00074 µM (active) in the test with HCT-116; 0.00149 µM (active) with HOP-62. The GI50 in the test on K562 was 0.000986 µM (active); in the test on MDA-N it was 0.000187 µM (active); in the test with NCI-H226, 0.0214 µM (active); with NCI-H23 it was 0.000785 µM (active); in the test on NCI/ADR-RES, 0.00119 µM (active); in the test on OVCAR-4 it was 0.000653 µM (active). For the same compound, the GI50 was 0.00177 µM (active) with OVCAR-8; 0.00118 µM (active) in the test on SF-268; 0.0036 µM (active) with SF-539; 0.00154 µM (active) with SK-MEL-5; 0.00163 µM (active) in the test on SNB-75; 0.000877 µM (active) in the test on SW-620. The GI50 in the test with T47D was 0.00973 µM (active); with UACC-62, 0.00183 µM (active).
In the case of `CCOC(=O)c1c2ccccc2n2c(=O)n(C)nnc12`, the GI50 with A498 is > 100 µM (inactive); in the test on A549, > 100 µM (inactive); with COLO 205 it was > 100 µM (inactive); in the test on HCC 2998, > 100 µM (inactive); with HCT-116, > 100 µM (inactive); with HOP-62, 12.4 µM (inactive). The GI50 in the test on K562, in the test on MDA-N, with NCI-H226, in the test with NCI-H23, with NCI/ADR-RES and in the test with OVCAR-4 was > 100 µM (inactive) throughout. In addition, the GI50 in the test on OVCAR-8 is > 100 µM (inactive); in the test on SF-268, 58.9 µM (inactive); in the test with SF-539, > 56.2 µM (inactive); in the test with SK-MEL-5 it was > 100 µM (inactive); in the test on SNB-75, 46.3 µM (inactive); in the test on SW-620, > 100 µM (inactive). In addition, the GI50 in the test on T47D and in the test on UACC-62 was > 100 µM (inactive) each time.
Turning to `COc1cc([C@@H]2c3cc4c(cc3[C@@H](Nc3ccccc3C(=O)c3ccccc3)[C@H]3COC(=O)[C@H]23)OCO4)cc(OC)c1OC`, the GI50 in the test on A498 was 0.149 µM (active); with A549 it was 0.753 µM (active); in the test on COLO 205 it was 0.472 µM (active); in the test on HCC 2998, 2.36 µM (inactive); with HCT-116, 0.321 µM (active); with HOP-62 it was 2.11 µM (inactive). Also, the GI50 in the test on K562 was 0.35 µM (active); with MDA-N, 0.316 µM (active); in the test on NCI-H226, 0.431 µM (active); in the test on NCI-H23, 0.668 µM (active); in the test on NCI/ADR-RES, 0.479 µM (active); in the test with OVCAR-4, > 27.2 µM (inactive). For the same compound, the GI50 in the test on OVCAR-8 is 0.47 µM (active); with SF-268, 0.855 µM (active); in the test on SF-539, 0.259 µM (active); in the test on SK-MEL-5, 0.475 µM (active); in the test with SNB-75, 0.849 µM (active); with SW-620, 0.471 µM (active). In addition, the GI50 is > 100 µM (inactive) in the test with T47D and 0.362 µM (active) with UACC-62.
As to `C=CCN(C(C)=O)c1cc(OCc2ccccc2)c2c(c1)c(C)cn2S(=O)(=O)c1ccccc1`, the GI50 with A498 is 5.16 µM (inactive); in the test on A549 it was 4.06 µM (inactive); in the test with COLO 205, 3.78 µM (inactive); with HCC 2998 it was 22.1 µM (inactive); with HCT-116 it was 3.85 µM (inactive); with HOP-62, 11.5 µM (inactive). Moreover, the GI50 in the test with K562 is 2.83 µM (inactive); in the test on MDA-N, 4.66 µM (inactive); in the test on NCI-H226, 7.29 µM (inactive); with NCI-H23, 7.8 µM (inactive); with NCI/ADR-RES, 4.95 µM (inactive); with OVCAR-4, 5.42 µM (inactive). Besides, the GI50 with OVCAR-8 was 5.57 µM (inactive); with SF-268 it was 5.37 µM (inactive); in the test on SF-539 it was 11.5 µM (inactive); in the test on SK-MEL-5 it was 4.37 µM (inactive); with SNB-75, 6.18 µM (inactive); in the test with SW-620, 5.46 µM (inactive). Further, the GI50 was 3.26 µM (inactive) with T47D and 7.1 µM (inactive) with UACC-62.
Turning to `Nc1ncnc2c1ncn2C1OC(CO)=CC1O` (stereo not given), the GI50 in the test on A498, with A549, in the test on COLO 205, with HCC 2998, in the test on HCT-116 and with HOP-62 was > 37.5 µM (inactive) in each case. Also, the GI50 with K562, in the test on MDA-N, in the test with NCI-H226, in the test on NCI-H23, in the test with NCI/ADR-RES and in the test with OVCAR-4 was > 37.5 µM (inactive) in each case. Also, the GI50 with OVCAR-8, in the test on SF-268, in the test with SF-539, with SK-MEL-5, with SNB-75 and in the test with SW-620 was > 37.5 µM (inactive) throughout. Further, the GI50 with T47D and in the test on UACC-62 was > 37.5 µM (inactive) each time.
On to `Cc1cc(C[C@H]2O[C@@H]3OC(C)(C)O[C@@H]3[C@H]3OC(C)(C)O[C@H]32)c2ccccc2n1`, for which the GI50 in the test with A498 was > 100 µM (inactive); with A549 it was 63.4 µM (inactive); with COLO 205, > 100 µM (inactive); with HCC 2998, > 100 µM (inactive); with HCT-116, 72.6 µM (inactive); with HOP-62, 55.3 µM (inactive). The GI50 with K562 is 48.1 µM (inactive); in the test with MDA-N it was 41.3 µM (inactive); in the test on NCI-H226 it was 55.3 µM (inactive); in the test with NCI-H23 it was 52.7 µM (inactive); in the test with NCI/ADR-RES, 34 µM (inactive); in the test with OVCAR-4, > 100 µM (inactive). Also, the GI50 is 43.1 µM (inactive) with OVCAR-8; > 100 µM (inactive) in the test on SF-268; > 100 µM (inactive) with SF-539; 55.6 µM (inactive) with SK-MEL-5; > 100 µM (inactive) with SNB-75; > 100 µM (inactive) in the test with SW-620. In addition, the GI50 with T47D was 63.5 µM (inactive); in the test on UACC-62 it was > 100 µM (inactive).
For the compound `C=CCc1[nH]c2c(OCc3ccccc3)cc(N(CC=C)C(C)=O)cc2c1C`, the GI50 is 12.5 µM (inactive) with A498; 13.4 µM (inactive) in the test on A549; 15.2 µM (inactive) in the test on COLO 205; 15.1 µM (inactive) in the test with HCC 2998; 12.3 µM (inactive) with HCT-116; 17.1 µM (inactive) in the test with HOP-62. Moreover, the GI50 was 10.1 µM (inactive) in the test with K562; 14.4 µM (inactive) in the test with MDA-N; 17.6 µM (inactive) in the test on NCI-H226; 13.9 µM (inactive) in the test on NCI-H23; 14.3 µM (inactive) with NCI/ADR-RES; 8.79 µM (inactive) in the test on OVCAR-4. For the same compound, the GI50 is 13.2 µM (inactive) in the test with OVCAR-8; 12.2 µM (inactive) in the test on SF-268; 16.3 µM (inactive) with SF-539; 11.8 µM (inactive) with SK-MEL-5; 10.7 µM (inactive) with SNB-75; 13.9 µM (inactive) in the test on SW-620. Also, the GI50 was 3.79 µM (inactive) in the test on T47D and 14 µM (inactive) with UACC-62.
In the case of `O=C(NNC(=O)c1ccccc1O)c1ccccc1O`, the GI50 in the test on A498 was 19.8 µM (inactive); with A549 it was 0.0361 µM (active); in the test with COLO 205 it was 0.355 µM (active); in the test on HCC 2998, 0.0519 µM (active); in the test on HCT-116 it was 0.0446 µM (active); in the test on HOP-62, 2.31 µM (inactive). Moreover, the GI50 in the test with K562 is < 0.0221 µM (active); in the test on MDA-N, 0.0247 µM (active); in the test with NCI-H226, 0.873 µM (active); in the test with NCI-H23 it was 0.105 µM (active); in the test with NCI/ADR-RES it was 0.0791 µM (active); in the test with OVCAR-4 it was 0.0621 µM (active). In addition, the GI50 in the test on OVCAR-8 is 0.929 µM (active); with SF-268 it was < 0.0233 µM (active); in the test with SF-539, 0.033 µM (active); with SK-MEL-5, 0.607 µM (active); in the test with SNB-75 it was 0.0565 µM (active); with SW-620, 0.108 µM (active). For the same compound, the figures for the GI50 in the test with T47D and in the test on UACC-62 were 0.0625 µM (active) and 0.0495 µM (active), respectively.
